Laboratory results taken from patent publication US20250304623A1, “PEPTIDES FOR INTRACELLULAR DELIVERY” (UNIVERSIDADE DE SANTIAGO DE COMPOSTELA, priority 2022, published 2025).
*: point of attachment. NHNH2 = NN*

What was measured:
Format in all cases: cell-based
[1] = system: Hela cells expressing EGFP; experiment: Cas9-RNP delivery against EGFP (gene editing, plate reader), HeLa; conditions: for % GFP silencing due to gene editing (Cas9-RNP): HeLa
Experimental: To generate an EGFP expressing HeLa cell line, HeLa cells were transfected with EGFP pDNA (pEGFP-C1, Clontech) and stable transfectants were selected with 400 μg/mL of G-418 (Millipore). Green clones were selected by epifluorescence microscopy and tested for EGFP expression stability through several passages. […] All other EGFP-expressing cell lines were obtained in a similar way from parent non-EGFP-expressing cell lines.
Cells expressing EGFP were seeded in a 96 well plate the day before the experiment at a concentration of 50,000 cell/mL (100 μL/w) in DMEM+10% FBS+1% Gln-Abt. For robotic library screening, the delivery of Cas9-RNP against EGFP (RNP designed to knock-out the gene encoding for the enhanced green fluorescent protein (EGFP)) was performed. For RNP assembly, 9.2 μL of crRNA and 9.2 μL of tracrRNA were mixed in 211.6 μL of Nuclease-Free Duplex Buffer (IDT), incubated for 5 min at 95° C. and slowly cooled at rt (see I. Lostalé-Seijo, et al. Peptide/Cas9 nanostructures for ribonucleoprotein cell membrane transport and gene edition, Chem. Sci., 2017). Cas9 protein was dissolved in DMEM at a final concentration of 4 μM and equal volumes of the RNA complex and Cas9 were mixed and incubated for 5 min at rt. 75 μL of the corresponding amphiphile concentrations were added to 5 μL of RNP at 2 μM. The mixture was shaken for 30 min at room temperature before the addition to the cells. The cell medium was aspirated, and cells were washed twice with PBS. Cells were covered with 30 μL of DMEM and 20 μL of the RNP/amphiphile complexes were added to the cells (final peptide concentrations=2.5, 5 and 10 μM; final Cas9-RNP concentration=50 nM) and incubated for 4 h. After the incubation, the medium was replaced by 100 μL of fresh DMEM supplemented with 10% FBS. The total EGFP fluorescence was quantified after 72 h in a plate reader (FIG. 2, Table 1 (right) and Table 6). All experiments were done in triplicate.
(§1) Tables 1-7: RLuc (pDNA) or EGFP (mRNA) expression levels were normalized to Lipofectamine reagents (value=1) and expressed as fold-times signal increase. In the case of siRNA, the siRNA treated cells fluorescence was compared with siMOCK control fluorescence, while Cas9-RNP mediated knockout was measured against the fluorescence of untreated cells. In both siRNA and Cas9-RNP, values are expressed as % fluorescence reduction. Amphiphile concentration was 5 μM in all cases. All experiments were performed in triplicate.
Tables 26-31 show the mean (triplicates) percentage of gene editing, accounted by GFP fluorescence intensity decrease (% of reduction), measured after the transfection of Cas9-RNP by different amphiphiles at different concentrations in a variety of cell lines. Background values, accounted by untreated control cells, were subtracted for processing.

[2] = system: ARPE19 cells; experiment: RLuc pDNA delivery, robotic library screening, ARPE19
[3] = system: HCT116 cells; experiment: EGFP mRNA delivery, robotic library screening, HCT116
Experimental: Cells were seeded in a 96 well plate the day before the experiment at a concentration of 50,000 cell/mL (100 μL/w) in DMEM+10% FBS+1% Gln-Abt. For robotic library screening, the delivery of EGFP-mRNA (from TriLink, fully substituted with 5-methoxyuridine, capped and polyadenylated; TriLink, CleanCap® EGFP mRNA (5moU), ref. L-7201) in six different cell lines was performed. Amphiphilic molecule stock solutions were prepared in DMSO as described above and diluted in DMEM to afford a range of concentrations. The solutions of EGFP-mRNA/amphiphilic molecule complexes were freshly prepared prior to the transfection experiments. 35 μL of the corresponding amphiphile were added to 10 μL of a solution of EGFP-mRNA at 10 ng/μL in DMEM. The mixture was shaken for 30 min at room temperature before the addition to the cells. The cell medium was aspirated, and cells were washed with PBS twice. Cells were covered with 39 μL of DMEM and 11 μL of the complex's solution were added to the cells and incubated for 4 h (final concentration of peptide=2.5, 5 and 10 μM; final concentration of EGFP-mRNA=25 ng/well). After the incubation, the medium was replaced by 100 μL of fresh DMEM supplemented with 10% FBS. The total EGFP fluorescence was quantified after 72 h in a well plate reader. Amphiphile transfection efficiency was compared and normalized to Lipofectamine® MessengerMax efficiency (value of 1 in Tables 1-5 and 7; double underlined numbers). All experiments were done in triplicate.
as §1
Tables 14-19 show the mean (triplicates) fluorescence intensity measured after the transfection of EGFP mRNA by different amphiphiles at different concentrations in a variety of cell lines. Background fluorescence values, accounted by untreated control cells, were subtracted for processing.

[4] = Petroselinyl, 15 μM, Hela cells

| Substance | percentage of gene editing, GFP fluorescence intensity decrease (% of reduction) ([1]; Myristoleyl, 5 μM, HeLa cells) | percentage of gene editing, GFP fluorescence intensity decrease (% of reduction) ([1]; Petroselinyl, 5 μM, HeLa cells) | percentage of gene editing, GFP fluorescence intensity decrease (% of reduction) [1, 4] | mean luminescent intensity (RLuc pDNA) ([2]; Myristoleyl, 5 μM) | mean luminescent intensity (RLuc pDNA) ([2]; Myristoleyl, 10 μM) | mean luminescent intensity (RLuc pDNA) ([2]; Myristoleyl, 15 μM) | mean luminescent intensity (RLuc pDNA) ([2]; Palmitoleyl, 5 μM) | mean luminescent intensity (RLuc pDNA) ([2]; Petroselinyl, 5 μM) | mean fluorescence intensity (EGFP mRNA) ([3]; Myristoleyl, 2.5 μM) | mean fluorescence intensity (EGFP mRNA) ([3]; Petroselinyl, 5 μM) | mean fluorescence intensity (EGFP mRNA) ([3]; Petroselinyl, 10 μM) | percentage of gene editing, GFP fluorescence intensity decrease (% of reduction) ([1]; Palmitoleyl, 5 μM, HeLa cells) | percentage of gene editing, GFP fluorescence intensity decrease (% of reduction) ([1]; Palmitoleyl, 10 μM, HeLa cells) | percentage of gene editing, GFP fluorescence intensity decrease (% of reduction) ([1]; Palmitoleyl, 15 μM, Hela cells) | mean luminescent intensity (RLuc pDNA) ([2]; Dodecanal, 5 μM) | mean luminescent intensity (RLuc pDNA) ([2]; Oleyl, 10 μM) | mean luminescent intensity (RLuc pDNA) ([2]; Oleyl, 15 μM) | mean luminescent intensity (RLuc pDNA) ([2]; Petroselinyl, 15 μM) | mean fluorescence intensity (EGFP mRNA) ([3]; Petroselinyl, 2.5 μM) | also measured |
| --- | --- | --- | --- | --- | --- | --- | --- | --- | --- | --- | --- | --- | --- | --- | --- | --- | --- | --- | --- | --- |
| Ac-RRHK*RLK*RRLK*RL-NH2 (Ac-RRHK(NHNH2)RLK(NHNH2)RRLK(NHNH2)RL-NH2; not fully specified; printed as Ac-RRHK*RLK*RRLK*RL-NH2; also: K*4,K*7,K*11: native or modified lysine (ε-amide to a linker)) [13(Leu-His)] | 16% | 39% | 81% | 6946 RLU | 72 RLU | 102 RLU | 8615 RLU | 4661 RLU | 2385 | 428 | 149 | – | – | – | – | – | – | – | – | % GFP silencing due to gene editing (Cas9-RNP) ([1]; 5 μM, Myr tail): 73%; percentage of gene editing, GFP fluorescence intensity decrease (% of reduction) ([1]; Myristoleyl, 10 μM, HeLa cells): 73%; percentage of gene editing, GFP fluorescence intensity decrease (% of reduction) ([1]; Petroselinyl, 10 μM, Hela cells): 74%; mean fluorescence intensity (EGFP mRNA) ([3]; Palmitoleyl, 5 μM): 642 |
| Ac-RRLK*RLK*RRLK*RL-NH2 [Peptide 13.3] | 29% | – | 85% | 6819 RLU | 3064 RLU | −316 RLU | 13194 RLU | 1458 RLU | 2744 | 1100 | 824 | 18% | 68% | 80% | 2557 RLU | 957 RLU | 1379 RLU | 5730 RLU | 1178 | % GFP silencing due to gene editing (Cas9-RNP) ([1]; 5 μM, Ole tail): 76%; % GFP silencing due to gene editing (Cas9-RNP) ([1]; 5 μM, Pal tail): 68%; % GFP silencing due to gene editing (Cas9-RNP) ([1]; 5 μM, Pet tail): 63%; percentage of gene editing, GFP fluorescence intensity decrease (% of reduction) ([1]; Myristoleyl, 15 μM, Hela cells): 86%; mean luminescent intensity (RLuc pDNA) ([2]; Oleyl, 5 μM): 1946 RLU; mean luminescent intensity (RLuc pDNA) ([2]; Petroselinyl, 10 μM): 35316 RLU; mean fluorescence intensity (EGFP mRNA) ([3]; Palmitoleyl, 2.5 μM): 1623 |
| Ac-RRLK*RLLRRLK*RLK*RRL-NH2 (Ac-RRLK(NHNH2)RLLRRLK(NHNH2)RLK(NHNH2)RRL-NH2; not fully specified; printed as Ac-RRLK*RLLRRLK*RLK*RRL-NH2; also: K*4,K*11,K*14: native or modified lysine (ε-amide to a linker)) [Peptide 17.3] | 57% | 48% | 87% | −148 RLU | −514 RLU | −339 RLU | 7062 RLU | 5399 RLU | 570 | 168 | 66 | 35% | 90% | 88% | 411 RLU | 822 RLU | 1043 RLU | 398 RLU | 373 | percentage of gene editing, GFP fluorescence intensity decrease (% of reduction) ([1]; Dodecanal, 5 μM, Hela cells): 81%; percentage of gene editing, GFP fluorescence intensity decrease (% of reduction) ([1]; Dodecanal, 10 μM, HeLa cells): 87%; percentage of gene editing, GFP fluorescence intensity decrease (% of reduction) ([1]; Dodecanal, 15 μM, Hela cells): 78%; percentage of gene editing, GFP fluorescence intensity decrease (% of reduction) ([1]; Oleyl, 10 μM, HeLa cells): 90%; percentage of gene editing, GFP fluorescence intensity decrease (% of reduction) ([1]; Oleyl, 15 μM, Hela cells): 82%; mean luminescent intensity (RLuc pDNA) ([2]; Dodecanal, 10 μM): 617 RLU; mean luminescent intensity (RLuc pDNA) ([2]; Dodecanal, 15 μM): 1217 RLU; mean luminescent intensity (RLuc pDNA) ([2]; Palmitoleyl, 15 μM): 413 RLU; mean fluorescence intensity (EGFP mRNA) ([3]; Dodecanal, 5 μM): 130; mean fluorescence intensity (EGFP mRNA) ([3]; Dodecanal, 10 μM): 312; mean fluorescence intensity (EGFP mRNA) ([3]; Myristoleyl, 5 μM): 247 |
